The text below walks through data of patent US11896591B2, “Compositions and methods for preparing and using mitochondrial uncouplers” (UNIVERSITY OF VIRGINIA PATENT FOUNDATION, priority 2017, dated 2024).

“Also recorded” adds a separate entry of the source. Where only a bound is given, the exact number is not on record here.

The conditions of assay [1]: patients consuming ˜300 mg/d, over several months, without changes in food intake; cited from earlier work.
Assay [2] relates to Diet-induced Obesity Mouse Model. Put plainly: Diet Induced Obesity Mouse Study. It counts as in vivo, Male C57B/6J mice. The method, then: Male C57B/6J mice aged 3 months (n=6) are assigned to one of three treatment groups: normal chow diet (Chow), western diet (WD) or western diet containing compound 4c (WD+4c). Mice fed WD and WD 4c are individually housed and given 3 grams of fresh food daily. WD+4c contained a dose of 4c equivalent to 50 mg/kg/day. For all treatments pre-weighed food is placed in cages and food intake is calculated daily. Fat and lean mass are measured by EchoMRI. Fat and lean mass for mice given the high fat Western Diet or the Western Diet with the compound 4c was determined by Echo MRI and shown in FIG. 6.

In assay [3] the test system is STAM mouse model of fatty liver disease. Put plainly: STAM mouse model of fatty liver disease (NALFD criteria: steatosis, inflammation, ballooning). Format: in vivo.
The test system of a further assay is whole cells. The assay is described as follows: Oxygen consumption rate (OCR) in whole cells, Seahorse XF-24 Flux Analyzer. Format: cell-based. The settings on record: for EC50: binned EC50 values, increase in oxygen consumption rate in whole cells. As for the experimental part: Biological activities of the compounds synthesized is determined by determining increase in oxygen consumption rate (OCR).
OCR is measured using a Seahorse XF-24 Flux Analyzer (Seahorse Biosciences, North Billerica, MA). NMuLi, C2C12, and L6 cells are seeded in a Seahorse 24-well tissue culture plate at a density of 3.5×10^4 cells/well, isolated cardiomyocytes at a density of 4×10^4 cells/well, and human primary fibroblasts at a density of 1.1×10^4 cells/well. The cells are then allowed to adhere for 24 h. […] Compounds are injected during the assay and OCR is measured using 2 min measurement periods.
2-3 wells are used per condition and averaged over three plates (n=6-9). Statistical significance is determined by two-way ANOVA with Bonferroni's posttest.

On to `O=[N+]([O-])c1ccc(O)c([N+](=O)[O-])c1` [DNP, 2,4-dinitrophenol], for which, in assay [1], the Weight loss is listed as 1.5 pounds per week. Broadly, the EC50 is the midpoint of the concentration-response curve. Higher therefore signals lower potency in that assay. For the compound `Fc1cccc(Nc2nc3nonc3nc2Nc2ccccc2F)c1` [Compound 4c, N^5-(2-fluorophenyl)-N^6-(3-fluorophenyl)-[1,2,5]oxadiazolo[3,4-b]pyrazine-5,6-diamine], in assay [2] (WD + 50 mg/kg/day compound 4c vs WD), the Glucose tolerance test result is “significantly improved glucose tolerance”. Also, the Lean mass entry in assay [2] (WD + 4c 50 mg/kg/day vs WD, EchoMRI) is recorded as “without losing lean mass; also recorded: substantially the same lean mass”. For the same compound, in assay [2] (WD + 4c vs WD), the Food intake result is recorded as “without a significant change in food intake”. Besides, in assay [2] (Western Diet (WD) + 4c 50 mg/kg/day vs WD, EchoMRI), the Fat mass result is given as “gain less fat mass; also recorded: gained significantly less fat mass”. In addition, in assay [3] (STAM mouse model (FIG. 3)), the Anti-inflammatory effects result is “anti-inflammatory effects”. Besides, the “Combined NALFD score” value in assay [3] (based on the steatosis, inflammation and ballooning assays, vs BAM15) is “significantly lower NALFD score than BAM15”. This compound also showed an EC50 in the assay with whole cells of less than 5 µM. In the assay with whole cells (compared with BAM15 or FCCP (FIG. 1, FIG. 2)), the “Oxygen consumption rate as a function of drug dose” value was “higher oxygen consumption rate than mitochondrial uncouplers, BAM15 or FCCP; also recorded: consistently high oxygen consumption rate than the mitochondrial uncoupler BAM15”. With `Cc1ccccc1Nc1nc2nonc2nc1Nc1ccccc1C` [Compound 3a, N^5,N^6-di-o-tolyl-[1,2,5]oxadiazolo[3,4-b]pyrazine-5,6-diamine], in the assay with whole cells, the half-maximal effective concentration (EC50) was greater than 20 µM.

Compound `Fc1c(Nc2nc3nc(C(F)(F)F)[nH]c3nc2Nc2cccc(C(F)(F)F)c2F)cccc1C(F)(F)F` [Compound 12e, N^5,N^6-bis(2-fluoro-3-(trifluoromethyl)phenyl)-2-(trifluoromethyl)-1H-imidazo[4,5-b]pyrazine-5,6-diamine] registered an EC50 in the assay with whole cells of 5 to 20 µM. Regarding `COc1ccc(Nc2nc3nonc3nc2Nc2ccccc2F)cc1` [Compound 4l, N^5-(2-fluorophenyl)-N^6-(4-methoxyphenyl)-[1,2,5]oxadiazolo[3,4-b]pyrazine-5,6-diamine], in the assay on whole cells, the EC50 was less than 5 µM. `Fc1cc(C(F)(F)F)ccc1Nc1nc2nonc2nc1Nc1ccc(C(F)(F)F)cc1F` [Compound 3w, N^5,N^6-bis(2-fluoro-4-(trifluoromethyl)phenyl)-[1,2,5]oxadiazolo[3,4-b]pyrazine-5,6-diamine] came in with a concentration giving a half-maximal response (EC50) in the assay on whole cells of less than 5 µM. As to `Fc1ccccc1Nc1nc2nonc2nc1Nc1ccccn1` [Compound 4b, N^5-(2-fluorophenyl)-N^6-(pyridin-2-yl)-[1,2,5]oxadiazolo[3,4-b]pyrazine-5,6-diamine], in the assay on whole cells, the EC50 is greater than 20 µM. For `FC(F)(F)c1cccc(Nc2nc3nonc3nc2Nc2cccc(C(F)(F)F)c2)c1` [Compound 3r, N^5,N^6-bis(3-(trifluoromethyl)phenyl)-[1,2,5]oxadiazolo[3,4-b]pyrazine-5,6-diamine], the EC50 in the assay with whole cells is less than 5 µM. On the same count and under the same terms, the figure for `Cn1c(C(F)(F)F)nc2nc(Nc3ccccc3F)c(Nc3ccccc3F)nc21` [Compound 13a, N^5,N^6-bis(2-fluorophenyl)-1-methyl-2-(trifluoromethyl)-imidazo[4,5-b]pyrazine-5,6-diamine] is greater than 20 µM. On to `Cc1cccc(Nc2nc3nonc3nc2Nc2ccccc2F)c1` [Compound 4h, N^5-(2-fluorophenyl)-N^6-(m-tolyl)-[1,2,5]oxadiazolo[3,4-b]pyrazine-5,6-diamine], for which the EC50 in the assay on whole cells is less than 5 µM. In the case of `Fc1ccccc1Nc1nc2nc(C(F)(F)F)[nH]c2nc1Nc1ccccc1` [Compound 12s, N^5-(2-fluorophenyl)-N^6-phenyl-2-(trifluoromethyl)-1H-imidazo[4,5-b]pyrazine-5,6-diamine], the EC50 in the assay with whole cells was in the range of 5 to 20 µM. For `Fc1cc(F)cc(Nc2nc3nonc3nc2Nc2cc(F)cc(F)c2)c1` [Compound 3cc, N^5,N^6-bis(3,5-difluorophenyl)-[1,2,5]oxadiazolo[3,4-b]pyrazine-5,6-diamine], the EC50 in the assay with whole cells was less than 5 µM.

In turn, `FC(F)(F)c1ccc(Nc2nc3nonc3nc2Nc2cccc(C(F)(F)F)c2)cc1` [Compound 4x, N^5-(3-(trifluoromethyl)phenyl)-N^6-(4-(trifluoromethyl)phenyl)-[1,2,5]oxadiazolo[3,4-b]pyrazine-5,6-diamine] gave an EC50 in the assay on whole cells of less than 5 µM. The same measure, in the same setting: as for `FC(F)(F)Oc1cccc(Nc2nc3nonc3nc2Nc2cccc(OC(F)(F)F)c2)c1` [Compound 3l, N^5,N^6-bis(3-(trifluoromethoxy)phenyl)-[1,2,5]oxadiazolo[3,4-b]pyrazine-5,6-diamine], the figure is less than 5 µM. Same read-out and setting: as for `COC(=O)c1ccc(Nc2nc3nonc3nc2Nc2ccccc2F)cc1` [Compound 4y, Methyl 4-((6-((2-fluorophenyl)amino)-[1,2,5]oxadiazolo[3,4-b]pyrazin-5-yl)amino)benzoate], the figure is less than 5 µM. `Fc1cccc(Nc2nc3[nH]c(C(F)(F)F)nc3nc2Nc2ccccc2F)c1` [Compound 12o, N^5-(2-fluorophenyl)-N^6-(3-fluorophenyl)-2-(trifluoromethyl)-1H-imidazo[4,5-b]pyrazine-5,6-diamine] registered an EC50 with whole cells of 5 to 20 µM. For `FC(F)(F)c1cc(Nc2nc3nc(C(F)(F)F)[nH]c3nc2Nc2cc(C(F)(F)F)cc(C(F)(F)F)c2)cc(C(F)(F)F)c1` [Compound 12d, N^5,N^6-bis(3,5-bis(trifluoromethyl)phenyl)-2-(trifluoromethyl)-1H-imidazo[4,5-b]pyrazine-5,6-diamine], in the assay with whole cells, the EC50 lay in the range of 5 to 20 µM. Compound `Cn1c(C(F)(F)F)nc2nc(Nc3ccccc3F)c(Nc3ccc(OC(F)(F)F)cc3)nc21` [Compound 13p, 1-Methyl-N^5-(2-fluorophenyl)-N^6-(4-(trifluoromethoxy)phenyl)-2-(trifluoromethyl)-imidazo[4,5-b]pyrazine-5,6-diamine] displayed an EC50 in the assay on whole cells greater than 20 µM. On to `Cc1cccc(Nc2nc3nonc3nc2Nc2cccc(C)c2)c1` [Compound 3b, N^5,N^6-di-m-tolyl-[1,2,5]oxadiazolo[3,4-b]pyrazine-5,6-diamine], for which the EC50 with whole cells is less than 5 µM.

Turning to `Cc1ccc(Nc2nc3[nH]c(C(F)(F)F)nc3nc2Nc2ccccc2F)cc1` [Compound 12u, N^5-(2-fluorophenyl)-N^6-(p-tolyl)-2-(trifluoromethyl)-1H-imidazo[4,5-b]pyrazine-5,6-diamine], the EC50 with whole cells is 5 to 20 µM. Same read-out and setting: as for `COC(=O)n1c(C(F)(F)F)nc2nc(Nc3cc(F)cc(F)c3)c(Nc3cc(F)cc(F)c3)nc21` [Compound 14c, Methyl 5,6-bis((3,5-difluorophenyl)amino)-2-(trifluoromethyl)-imidazo[4,5-b]pyrazine-1-carboxylate], the figure is 5 to 20 µM; as for `Cn1c(C(F)(F)F)nc2nc(Nc3cc(C(F)(F)F)ccc3F)c(Nc3cc(C(F)(F)F)ccc3F)nc21` [Compound 13b, N^5,N^6-bis(2-fluoro-5-(trifluoromethyl)phenyl)-1-methyl-2-(trifluoromethyl)-imidazo[4,5-b]pyrazine-5,6-diamine], 5 to 20 µM. Still for that read-out and setting: the figure for `Cn1c(C(F)(F)F)nc2nc(Nc3ccccc3F)c(Nc3cccc(C(F)(F)F)c3F)nc21` [Compound 13t, 1-Methyl-N^5-(2-fluorophenyl)-N^6-(2-fluoro-3-(trifluoromethyl)phenyl)-2-(trifluoromethyl)-imidazo[4,5-b]pyrazine-5,6-diamine] is greater than 20 µM. On to `Cc1ccc(Nc2nc3c(nc2Nc2ccccc2F)nc(C(F)(F)F)n3C)cc1` [Compound 13u, 1-Methyl-N^5-(2-fluorophenyl)-N^6-(p-tolyl)-2-(trifluoromethyl)-imidazo[4,5-b]pyrazine-5,6-diamine], for which, in the assay on whole cells, the EC50 was greater than 20 µM. Same read-out and setting: as for `Cn1c(C(F)(F)F)nc2nc(Nc3cccc(C(F)(F)F)c3F)c(Nc3cccc(C(F)(F)F)c3F)nc21` [Compound 13e, N^5,N^6-bis(2-fluoro-3-(trifluoromethyl)phenyl)-1-methyl-2-(trifluoromethyl)-imidazo[4,5-b]pyrazine-5,6-diamine], the figure is 5 to 20 µM. Turning to `COc1ccc(Nc2nc3nc(C(F)(F)F)[nH]c3nc2Nc2ccc(OC)cc2)cc1` [Compound 12n, N^5,N^6-bis(4-methoxyphenyl)-2-(trifluoromethyl)-1H-imidazo[4,5-b]pyrazine-5,6-diamine], the EC50 in the assay with whole cells was greater than 20 µM. On to `Fc1cccc(Nc2nc3nonc3nc2Nc2cccc(F)c2)c1` [Compound 3n, N^5,N^6-bis(3-fluorophenyl)-[1,2,5]oxadiazolo[3,4-b]pyrazine-5,6-diamine], for which the EC50 in the assay with whole cells was less than 5 µM. In the assay with whole cells, `Cc1ccc(Nc2nc3nc(C(F)(F)F)[nH]c3nc2Nc2ccc(C)cc2)cc1` [Compound 12k, N^5,N^6-di-p-tolyl-2-(trifluoromethyl)-1H-imidazo[4,5-b]pyrazine-5,6-diamine] yielded a concentration giving a half-maximal response (EC50) greater than 20 µM. On the same count and under the same terms, as for `COc1cccc(Nc2nc3nonc3nc2Nc2ccccc2F)c1` [Compound 4k, N^5-(2-fluorophenyl)-N^6-(3-methoxyphenyl)-[1,2,5]oxadiazolo[3,4-b]pyrazine-5,6-diamine], the figure is less than 5 µM; as for `FC(F)(F)c1ccccc1Nc1nc2nonc2nc1Nc1ccccc1C(F)(F)F` [Compound 3q, N^5,N^6-bis(2-(trifluoromethyl)phenyl)-[1,2,5]oxadiazolo[3,4-b]pyrazine-5,6-diamine], less than 5 µM.
